Counter-ions that a name gives are not always drawn. Marks after values point to notes of the source that are not given here. Blank lines part the entries; values can stand above or below the compound they belong to.
Legend:
C. elegans germline = experiment: Size of mitotic zone of the germline (DAPI, phospho-histone H3 staining)
Excerpt: In C. elegans, the germline is comprised of two main compartments, a mitotic region (the premeiotic tip), where nuclei are under the influence of the distal tip cell that maintains them in a proliferative state; and the meiotic region, where nuclei progress through the stages of Prophase I before being fertilized. The mitotic compartment of the worm gonad following BPA exposure was examined.
(§1) BPA bears endocrine disrupting activity in many developmental contexts including gonadal, brain and mammary gland development. BPA has affinity for multiple members of the estrogen receptors family, in particular BPA binds to the human estrogen receptor alpha (ERα) and ERβ as well as estrogen-related receptor gamma (ERR-γ) and in C. elegans with nuclear hormone receptor NHR-14 which also binds estrogen. […] Two hallmarks of exposure to BPA were examined, the decrease in the size of the proliferative zone and the condensation defects observed at diakinesis, as they are both highly penetrant and consistent phenotypes. […] Similarly to the experiments described above, the size of the mitotic zone was quantified as well as condensation defects at diakinesis.
Growing Conditions and Drug Exposures. Worms were cultured according to [23] at 20° C. on NGM plates without cholesterol. […] Exposure was carried from embryogenesis to adulthood by plating sodium hypochloride treated eggs onto drug and control plates and incubated at 20° C. for four days.
Antibody Staining. DAN staining, immunostaining and analysis of stained meiotic nuclei were performed as in [25] except for ATL-1 and AIR-2 antibodies were dissected gonads were subjected to a 1% fixation method as described in [27]. […] The secondary antibodies used were: Cy3 anti-rabbit, FITC anti-guinea-pig and FITC anti-mouse (Jackson Immunochemicals), each at 1:100, Stacks of 0.2 μm slices were captured using a Leica microscope, coupled to the DeltaVision fluorescence microscope system (Applied Precision). […]

xol-1::GFP worms = experiment: xol-1::GFP reporter assay for male (aneuploid) embryos; details: for male embryos in adult mid-ventral sections: 0.1 mg/ml in liquid culture, added 1 day post-L4 for 20 hours; for frequency of xol-1::GFP worms containing GFP+ eggs: 0.1 mg/ml, preliminary analysis
Experimental: In one embodiment of the invention, synchronized cultures of worms are grown for the desired developmental period (e.g., from eggs to adulthood, 4 days) on multiwell plates (e.g., 96-well plates) containing media mixed with the compound of interest at the concentration of interest (e.g., 1 μM and 100 μM). The concentrations can be adjusted if necessary to compensate for solubility differences. Following exposure, the worms are washed off the plate with a physiological buffer and then run through a high-throughput flow cytometry device (e.g., the COPAS Biosort). With this automated nematode analysis, sorting, and dispensing platform (Furlong et al., Nat Biotechnol. 2001; 19(2):153-6; Gill et al., Free Radic Biol Med. 2003; 35(6):558-65; Rea et al., Nat Genet. 2005; 37(8):894-8. PMCID: 1479894) one 96-well plate can be screened per hour. In one embodiment, test wells are alternated with mock wells to flush the equipment in order to avoid cross-contamination. […] The worm sorter not only directs the sorting of GFP positive worms from GFP negative ones but when coupled to the Profiler analysis software, also allows for the localization of the fluorescence within the worm. In one embodiment, scoring is for GFP positive eggs present in the animal's mid-ventral section (uterus), therefore, any worms showing mis-localized GFP expression will be discarded thus improving the accuracy of the screen. Positive controls used for the screen can include colchicine and nocodazole, both described as disruptors of spindle organization and therefore of chromosome segregation (Sato A, et al., Cell. 2009; 139(5):907-19; Stear et al., Mol Biol Cell. 2004; 15(11):5187-96. PMCID: 524797).
Worms are grown from eggs to adulthood (4 days) on 96-well plates containing media mixed with the compound of interest. Initially, two different concentrations are assayed, 1 μM and 100 μM, concentrations previously used in the context of other C. elegans toxicological screens (Boyd, McBride and Freedman, 2007; Boyd et al, 2009).
Following exposure, the worms are washed off the plate with buffer and run through a high-throughput flow cytometry device, commonly known as a “worm sorter” (COPAS-Biosort from Union Biometrica). The worm sorter not only directs the sorting of GFP positive worms from GFP negative ones but when coupled to the Profiler analysis software, also allows for the localization of the fluorescence within the worm. Scoring in the screen, is for GFP positive eggs present in the animal's mid-ventral section (uterus), therefore, any worms showing mis-localized GFP expression are discounted thus improving the accuracy of the screen.
The xol-1::GFP reporter strain was tested for meiotic disruption by addition of an external agent, by exposing the C. elegans to several cell cycle disruptors (microtubule disrupting agents) dissolved in DMSO, DMSO alone was used as a negative control. Each individual test agent was added to the liquid culture medium of the C. elegans at 1 day post-L4 (4 days of development) for a total of 20 hours. The C. elegans was then analyzed for the percentage of male embryos in the adult-midventral sections. Nocodazol was added to the medium at a final concentration of 0.1 mg/ml.
Adult xol-1::GFP worms were exposed to 100 μM nocodazole for 24 hours in liquid culture and the presence of GFP+ embryos in the uterus of exposed worms was monitored.
The effect of selected chemotherapeutic agents on the generation of aneuploidies was analyzed. xol-1::GFP adult worms were exposed to the compounds at a concentration of 100 μM for 24 hours in liquid culture in triplicates.
Each well contained 750 μl of M9, the drug at a final concentration of 100 μM, concentrated bacteria and young adults+eggs. The cultures were examined at 24 hours and 4 days.

[1] = tested on: C. elegans diakinesis oocytes; experiment: Diakinesis oocyte analysis (chromosome condensation, SYP-1, AIR-2, pH3); details: 1 mM E2; […] 4-HT
Excerpt: Proper processing of recombination events is coupled with the formation of mature bivalents during the diakinesis stage such that in mutants where recombination intermediate processing is impaired, bivalent maturation is delayed.
Associated with the changes in chromatin morphology, the SC is disassembled during late diakinesis in a tightly controlled fashion. Accordingly, SC components, such as SYP-1, are detectable on the short arms of the bivalent in the −3 oocyte but are essentially absent from the bivalents of −2 and −1 oocytes. Thus, whether a delay in chromosome remodeling could correlate with an incomplete disassembly of SC components in late diakinesis was examined.
Accurate chromosome segregation at meiosis I is characterized by the carefully orchestrated loss of cohesion between homologs coupled with retention of cohesion between sister chromatids. This regulated process involves the targeting of the Aurora-B kinase AIR-2, a member of the chromosomal passenger complex, to the short arm of the bivalents in the −1 oocyte which has been proposed to lead to the removal the meiosis-specific cohesin REC-8 from the short arms of the bivalent. To examine whether these key steps in late meiotic prophase I might be impaired in BPA treated gonads, the localization of AIR-2 in the −1 oocytes was examined. […] Phospho histone H3 (pH3) is a canonical substrate for the activity of AIR-2 [59] and accordingly, although it accumulates in the −3 to −1 oocytes, it is only detected on the short arms of the bivalent in the −1 oocyte in the presence of AIR-2 [56, 57].
as §1
Antibody Staining. DAN staining, immunostaining and analysis of stained meiotic nuclei were performed as in [25] except for ATL-1 and AIR-2 antibodies were dissected gonads were subjected to a 1% fixation method as described in [27]. Antibodies were used at the following dilutions: rabbit α-SYP-1 (1:100), mouse α-RAD-51 (1:100), rabbit α-HTP-3 (1:500), guinea pig α-HIM-8 (1:100), rabbit α-ATL-1 (1:50), rabbit α-AIR-2 (1:100) and rabbit α-pCHK-1 (1:100). The secondary antibodies used were: Cy3 anti-rabbit, FITC anti-guinea-pig and FITC anti-mouse (Jackson Immunochemicals), each at 1:100, Stacks of 0.2 μm slices were captured using a Leica microscope, coupled to the DeltaVision fluorescence microscope system (Applied Precision). The images were projections approximately halfway through 3D data stacks of whole nuclei, except for diakinesis images which encompass entire nuclei.

xol-1::LUC = experiment: xol-1::luciferase reporter induction; format: in vivo, C. elegans; details: 1 μM or 100 μM for 24 hours, preliminary experiment
[2] = xol-1::GFP, C. elegans, in vivo, 24 hours, 100 μM
[3] = average over the chemicals of the category, 100 μM, 24 hours, liquid culture, triplicates

Compound: C[C@]12CC[C@@H]3c4ccc(O)cc4CC[C@H]3[C@@H]1CC[C@@H]2O [E2, estradiol]
bivalent maturation / condensation defects at diakinesis [1]: did not cause any observable bivalent maturation defects | increase in the number of nuclei comprising the mitotic region vs ethanol (C. elegans germline; 1 mM E2 for 4 days, DAPI staining): 13%

Compound: CN[C@H]1CCc2cc(OC)c(OC)c(OC)c2-c2ccc(OC)c(=O)cc21 [demecolcine]
male embryos in adult mid-ventral sections (xol-1::GFP worms): 2.7% | frequency of xol-1::GFP worms containing GFP+ eggs (xol-1::GFP worms): 3/66

Compound: COC(=O)Nc1nc2ccc(C(=O)c3cccs3)cc2[nH]1 [nocodazole]
induction of luciferase compared to DMSO (xol-1::LUC): significant induction | male embryos in adult mid-ventral sections (xol-1::GFP worms): 37% | frequency of xol-1::GFP worms containing GFP+ eggs (xol-1::GFP worms): 6/16 | worms with at least one GFP+ embryo (xol-1::GFP worms; adult worms, 100 μM, 24 hours, liquid culture): 55% | Average % of worms with 1 or more GFP embryos/category (xol-1::GFP worms; [3]): 23.3% *

Compound: Triethylene melamine
Average % of worms with 1 or more GFP embryos/category (xol-1::GFP worms; [3]): 3.77% *

Continued, values first:

pH3 positive nuclei in mitotic zone vs control (C. elegans germline; 4 days exposure, BPA 1 mM, 4-HT […]): two-fold decrease
Compound: 4-hydroxy-tamoxifen [4-HT]

Average % of worms with 1 or more GFP embryos/category (xol-1::GFP worms; [2]): 0.6%
Compound: Oc1ncnc2[nH]ncc12 [Allopurinol]

Average % of worms with 1 or more GFP embryos/category (xol-1::GFP worms; [2]): 3.77% *
Compound: CC[C@@]1(O)C(=O)OCc2c1cc1n(c2=O)Cc2cc3c(CN(C)C)c(O)ccc3nc2-1 [Topotecan HCl]

Average % of worms with 1 or more GFP embryos/category (xol-1::GFP worms; [2]): 23.3% *
Compound: CC[C@]1(O)C[C@@H]2CN(CCc3c([nH]c4ccccc34)[C@@](C(=O)OC)(c3cc4c(cc3OC)N(C)[C@H]3[C@@](O)(C(=O)OC)[C@H](OC(C)=O)[C@]5(CC)C=CCN6CC[C@]43[C@@H]65)C2)C1 [Vinblastine]

Average % of worms with 1 or more GFP embryos/category (xol-1::GFP worms; [3]): 23.3% *
Compound: CC[C@]1(O)C[C@H]2CN(CCc3c([nH]c4ccccc34)[C@@](C(=O)OC)(c3cc4c(cc3OC)N(C=O)[C@H]3[C@@](O)(C(=O)OC)[C@H](OC(C)=O)[C@]5(CC)C=CCN6CC[C@]43[C@@H]65)C2)C1 [Vincristine sulfate]
